Data taken from patent publication EP0908457B1, “3-(1,2-benzisothiazol- and isoxazol-5-Y1)-2,4(1H,3H)-pyrimidinedione or thione and 3-(1,2-benzisothiazol- and isoxazol-5-y1)-4(3H)-pyrimidinone or thione herbicidal agents” (BASF AKTIENGESELLSCHAFT, priority 1997, dated 1999).

Columns and labels:
[1] = tested on: Oryza sativa, (L.) Tebonnet; experiment: Rice tolerance to post-transplant applications under flooded paddy conditions (Example 187), ORYSAT (Rice, Tebonnet); conditions: rated three to four weeks after treatment
[2] = tested on: Cyperus serotinus, Rottb.; experiment: Preemergence weed control under flooded paddy conditions, CYPSE (Flatsedge); type: in vivo; conditions: preemergence, rated three to four weeks after treatment
[3] = tested on: Monochoria vaginalis, Presl.; experiment: Preemergence weed control under flooded paddy conditions, MOOVA (Monochoria); type: in vivo; conditions: preemergence, flooded paddy, rated three to four weeks after treatment
Sagittaria pygmaea, L. = experiment: Preemergence weed control under flooded paddy conditions, SAGPY (Arrowhead (Pygmaea)); type: in vivo; conditions: preemergence, flooded paddy, rated three to four weeks after treatment
[4] = tested on: Echinochloa oryzoides (Ard.) Fritsch.; experiment: Preemergence weed control under flooded paddy conditions, ECHORC (Watergrass (Calif.)); type: in vivo; conditions: preemergence, flooded paddy, rated three to four weeks after treatment
Cyperus iria = experiment: Preemergence weed control under flooded paddy conditions, CYPIR (Rice Flatsedge); type: in vivo; conditions: preemergence, flooded paddy, rated three to four weeks after treatment

Row | Structure (SMILES) | ORYSAT herbicidal rating (rice tolerance) ([1]; 0.0320 kg/ha) | ORYSAT herbicidal rating (rice tolerance) ([1]; 0.0620 kg/ha) | ORYSAT herbicidal rating (rice tolerance) ([1]; 0.1250 kg/ha) | ORYSAT herbicidal rating (rice tolerance) ([1]; 0.2500 kg/ha) | CYPSE herbicidal rating ([2]; 0.2500 kg/ha) | MOOVA herbicidal rating ([3]; 0.0320 kg/ha) | MOOVA herbicidal rating ([3]; 0.0620 kg/ha) | MOOVA herbicidal rating ([3]; 0.1250 kg/ha) | MOOVA herbicidal rating ([3]; 0.2500 kg/ha) | SAGPY herbicidal rating (Sagittaria pygmaea, L.; 0.0320 kg/ha) | SAGPY herbicidal rating (Sagittaria pygmaea, L.; 0.0620 kg/ha) | SAGPY herbicidal rating (Sagittaria pygmaea, L.; 0.1250 kg/ha) | SAGPY herbicidal rating (Sagittaria pygmaea, L.; 0.2500 kg/ha) | ECHORC herbicidal rating ([4]; 0.0320 kg/ha) | ECHORC herbicidal rating ([4]; 0.0620 kg/ha) | ECHORC herbicidal rating ([4]; 0.1250 kg/ha) | ECHORC herbicidal rating ([4]; 0.2500 kg/ha) | CYPIR herbicidal rating (Cyperus iria; 0.0320 kg/ha) | CYPIR herbicidal rating (Cyperus iria; 0.0620 kg/ha) | CYPIR herbicidal rating (Cyperus iria; 0.1250 kg/ha) | also measured
1 | Cn1c(C(F)(F)F)cc(=O)n(-c2ccc3snc(C(C)(C)C(=O)O)c3c2)c1=O [Example 466, 1,2-Benzisothiazole-3-acetic acid, 5-[3,6-dihydro-3-methyl-2,6-dioxo-4-(trifluoromethyl)-1(2H)-pyrimidinyl]-alpha,alpha-dimethyl-] | 4.0 | 5.0 | 7.0 | 9.0 | 1.0 | 7.0 | 7.0 | 9.0 | 9.0 | 0.0 | 0.0 | 3.0 | 7.0 | 2.0 | 4.0 | 5.0 | 7.0 | 3.0 | 3.0 | 7.0 | CYPIR herbicidal rating (Cyperus iria; 0.2500 kg/ha): 9.0
2 | Cn1c(C(F)(F)F)cc(=O)n(-c2ccc3snc(C(=O)NS(=O)(=O)Cc4ccc(Cl)cc4)c3c2)c1=O [Example 468, 1,2-Benzisothiazole-3-carboxamide, N-[(p-chlorobenzyl)sulfonyl]-5-[3,6-dihydro-3-methyl-2,6-dioxo-4-(trifluoromethyl)-1(2H)-pyrimidinyl]-] | 3.0 | 3.0 | 5.0 | 5.0 | 5.0 | 5.0 | 6.0 | 7.0 | 5.0 | 3.0 | 4.0 | 4.0 | 5.0 | 7.0 | 7.0 | 9.0 | 9.0 | 5.0 | 6.0 | 6.0 | CYPSE herbicidal rating ([2]; 0.0320 kg/ha): 2.0; CYPSE herbicidal rating ([2]; 0.0620 kg/ha): 6.0; CYPSE herbicidal rating ([2]; 0.1250 kg/ha): 7.0; CYPIR herbicidal rating (Cyperus iria; 0.2500 kg/ha): 5.0
3 | Cn1c(C(F)(F)F)cc(=O)n(-c2ccc3snc(C(=O)NO)c3c2)c1=O [Example 471, 1,2-Benzisothiazole-3-carbohydroxamic acid, 5-[3,6-dihydro-3-methyl-2,6-dioxo-4-(trifluoromethyl)-1(2H)-pyrimidinyl]-] | 2.0 | 3.0 | 5.0 | 5.0 | 7.0 | 6.0 | 7.0 | 9.0 | 9.0 | 0.0 | 3.0 | 5.0 | 7.0 | 0.0 | 3.0 | 6.0 | 9.0 | 6.0 | 6.0 | 9.0 | CYPSE herbicidal rating ([2]; 0.0320 kg/ha): 3.0; CYPIR herbicidal rating (Cyperus iria; 0.2500 kg/ha): 9.0
4 | Cn1c(C(F)(F)F)cc(=O)n(-c2ccc3snc(C(=O)NS(N)(=O)=O)c3c2)c1=O [Example 472, 1,2-Benzisothiazole-3-carboxamide, 5-[3,6-dihydro-3-methyl-2,6-dioxo-4-(trifluoromethyl)-1(2H)-pyrimidinyl]-N-sulfamoyl-] | 0.0 | 1.0 | 3.0 | 6.0 | 9.0 | 5.0 | 6.0 | 7.0 | 7.0 | 0.0 | 0.0 | 2.0 | 3.0 | 3.0 | 3.0 | 4.0 | 4.0 | 4.0 | 4.0 | 5.0 | CYPSE herbicidal rating ([2]; 0.0320 kg/ha): 0.0; CYPSE herbicidal rating ([2]; 0.1250 kg/ha): 6.0; CYPIR herbicidal rating (Cyperus iria; 0.2500 kg/ha): 6.0
